Reference: EPA's CvTdb concentration-time database (doi:10.1093/toxsci/kfy020)

Test system: rat
Experiment: concentration in plasma after dosing
Conditions: male

COc1ccccc1Oc1c(NS(=O)(=O)c2ccc(C(C)(C)C)cc2)nc(-c2ncccn2)nc1OCCO [Bosentan]
concentration in plasma [ng/mL], dosed: Bosentan, Wistar
Conditions	0.5 h	1 h	2 h	2 min	3 h	4 h	6 h	8 h	10 min	20 min
1.0000000000 mg/kg, iv	168	128	78.9	1950	61.3	38.3	18.3	10.5	323	212
10.0000000000 mg/kg, oral	–	622	608	–	–	360	157	60	–	–

COC(=O)Nc1nc2ccccc2[nH]1 [Carbendazim]
dosed: Carbendazim, 1000.0000000000 mg/kg, oral, Sprague-Dawley
Conditions	concentration in plasma [ng/mL]
0.25 h	10000
0.5 h	11600
1 h	14700
2 h	20200
4 h	14100
8 h	4590
20 h	49.4

CCOP(=S)(OCC)Oc1nc(Cl)c(Cl)cc1Cl [Chlorpyrifos]
concentration in plasma [ng/mL], dosed: Chlorpyrifos, oral, F344
Conditions	1 h	3 h	5 min	6 h	12 h	20 min
5.0000000000 mg/kg	1.39	30	–	13.1	1.81	–
10.0000000000 mg/kg	5.05	109	–	18.7	1.76	–
50.0000000000 mg/kg	51	326	0.559	79.3	15.5	1.42
100.0000000000 mg/kg	246	759	0.665	202	278	7.47

COc1ccc([C@@H]2Sc3ccccc3N(CCN(C)C)C(=O)[C@@H]2OC(C)=O)cc1 [Diltiazem]
concentration in plasma [ng/mL], dosed: Diltiazem, 20.0000000000 mg/kg, Sprague-Dawley
Conditions	0.16 h	0.25 h	1 h	1.5 h	2 h	3 h	4 h	6 h	8 h	10 h
iv	7870	5050	2530	1510	956	636	202	69.3	78	22.5
oral	1220	488	248	189	271	160	52.8	19.4	–	–

CNC(=O)Oc1cccc(N=CN(C)C)c1.Cl [Formetanate hydrochloride]
concentration in plasma [ng/mL], dosed: Formetanate hydrochloride, Sprague-Dawley
Conditions	0.25 h	1 h	2 h	24 h	48 h	72 h
1.0000000000 mg/kg, iv	–	–	–	7.9	2.2	–
5.0000000000 mg/kg, oral	262	53.2	9.57	1.64	12.4	5.13

Cc1ncc2n1-c1ccc(Cl)cc1C(c1ccccc1F)=NC2 [Midazolam]
concentration in plasma [ng/mL], dosed: Midazolam, Sprague-Dawley
Conditions	0.25 h	0.5 h	1 h	1.5 h	2 h	3 h	4 h	5 min	10 min
5.0000000000 mg/kg, iv	964	570	255	125	62.5	16.1	1	2210	1080
15.0000000000 mg/kg, oral	134	163	123	113	88.5	37.7	19.8	12.9	71.1

CCOc1ccc(NC(C)=O)cc1 [Phenacetin]
dosed: Phenacetin, 23.0000000000 mg/kg, iv, Sprague-Dawley
Conditions	concentration in plasma [ng/mL]
0.25 h	18900
0.5 h	16100
0.75 h	12200
1 h	9020
1.5 h	6630
2 h	4320
2.5 min	26300
5 min	24300
10 min	21800

O=C1NC(=O)C(c2ccccc2)(c2ccccc2)N1 [Phenytoin]
dosed: Phenytoin, 25.0000000000 mg/kg, iv, duration: 1 min, Sprague-Dawley
Conditions	concentration in plasma [ng/mL]
0.25 h	21500
0.5 h	15800
0.75 h	12100
1 h	8790
1 min	461000
1.5 h	4630
2 h	2480
3 h	1500
4 h	831

dosed: Phenytoin
Conditions	concentration in plasma [ng/mL]
0.25 h, 25.0000000000 mg/kg, oral, Sprague-Dawley	4120
0.25 h, 40.0000000000 mg/kg, iv, Wistar-derived	26900
0.5 h, 25.0000000000 mg/kg, oral, Sprague-Dawley	3370
0.5 h, 40.0000000000 mg/kg, iv, Wistar-derived	19300
0.75 h, 25.0000000000 mg/kg, oral, Sprague-Dawley	2620
1 h, 25.0000000000 mg/kg, oral, Sprague-Dawley	1820
1 h, 40.0000000000 mg/kg, iv, Wistar-derived	14200
1.5 h, 25.0000000000 mg/kg, oral, Sprague-Dawley	1200
1.5 h, 40.0000000000 mg/kg, iv, Wistar-derived	11700
2 h, 25.0000000000 mg/kg, oral, Sprague-Dawley	885
2 h, 40.0000000000 mg/kg, iv, Wistar-derived	8970
2.5 h, 40.0000000000 mg/kg, iv, Wistar-derived	7190
3 h, 25.0000000000 mg/kg, oral, Sprague-Dawley	1170
3 h, 40.0000000000 mg/kg, iv, Wistar-derived	4790
3.5 h, 40.0000000000 mg/kg, iv, Wistar-derived	3020
4 h, 25.0000000000 mg/kg, oral, Sprague-Dawley	1120
4 h, 40.0000000000 mg/kg, iv, Wistar-derived	2270
5 min, 40.0000000000 mg/kg, iv, Wistar-derived	54300
6 h, 25.0000000000 mg/kg, oral, Sprague-Dawley	771
8 h, 25.0000000000 mg/kg, oral, Sprague-Dawley	759
10 h, 25.0000000000 mg/kg, oral, Sprague-Dawley	865
10 min, 40.0000000000 mg/kg, iv, Wistar-derived	33800
12 h, 25.0000000000 mg/kg, oral, Sprague-Dawley	495
20 min, 40.0000000000 mg/kg, iv, Wistar-derived	23200
40 min, 40.0000000000 mg/kg, iv, Wistar-derived	16800

COCCc1ccc(OC[C@H](O)CNC(C)C)cc1 [R-Metoprolol]
dosed: Metoprolol, 15.0000000000 mg/kg, oral, Wistar
Conditions	concentration in plasma [ng/mL]
1 h	24.4
1.5 h	10.1
2 h	12.2
2 min	199
2.5 h	4.49
3 h	2.07
4 h	1.05
4 min	380
8 min	84.6
10 min	108
20 min	79.3
40 min	53.9
50 min	35.4

COCCc1ccc(OC[C@@H](O)CNC(C)C)cc1 [S-Metoprolol]
dosed: Metoprolol, 15.0000000000 mg/kg, oral, Wistar
Conditions	concentration in plasma [ng/mL]
0.1 h	93.2
0.5 h	53
1 h	13.9
1.5 h	8.15
2 h	6.61
2 min	219
2.5 h	2.14
3 h	1.45
4 min	425
8 min	79.3
10 min	68.6
20 min	54.7
40 min	38.4
50 min	24.4

CCCCNC(=O)NS(=O)(=O)c1ccc(C)cc1 [Tolbutamide]
dosed: Tolbutamide
Conditions	concentration in plasma [ng/mL]
0.25 h, 20.0000000000 mg/kg, oral, Wistar	79100
0.5 h, 20.0000000000 mg/kg, oral, Wistar	84700
1 h, 10.0000000000 mg/kg, iv, Sprague-Dawley	43400
1 h, 20.0000000000 mg/kg, oral, Wistar	85900
1.5 h, 10.0000000000 mg/kg, iv, Sprague-Dawley	38400
2 h, 10.0000000000 mg/kg, iv, Sprague-Dawley	33400
2 h, 20.0000000000 mg/kg, oral, Wistar	76400
3 h, 10.0000000000 mg/kg, iv, Sprague-Dawley	29400
4 h, 10.0000000000 mg/kg, iv, Sprague-Dawley	25300
4 h, 20.0000000000 mg/kg, oral, Wistar	52900
5 h, 10.0000000000 mg/kg, iv, Sprague-Dawley	23100
6 h, 10.0000000000 mg/kg, iv, Sprague-Dawley	19500
6 h, 20.0000000000 mg/kg, oral, Wistar	35800
8 h, 20.0000000000 mg/kg, oral, Wistar	26600
10 min, 10.0000000000 mg/kg, iv, Sprague-Dawley	64200
12 h, 20.0000000000 mg/kg, oral, Wistar	17900
20 min, 10.0000000000 mg/kg, iv, Sprague-Dawley	57100
40 min, 10.0000000000 mg/kg, iv, Sprague-Dawley	49700
